The values that follow come from patent publication US7220784B2, “Substituted stilbenes and their reactions” (priority 2000, dated 2007).

Read-outs that look alike come from different tables or passages of the source.

For one series, the system named is T1, tubulin.
T1 construct: other: concentration required to reduce assembly of tubulin by 50%
The series is described as follows: Inhibition of tubulin assembly. Format: biochemical. The settings on record: concentration required to reduce assembly of tubulin by 50%. The method, then:
(§1) The following assays (1–5) were carried out as described in our paper (Woods, et al, British Journal of Cancer, 71, 705–711 (1995)). In addition to the cell lines described in this paper, other established human cell lines (K562, HUVEC, H460, BE, H529, and HT29) were used in the cytotoxicity/growth inhibition assay. • (1) Inhibition of tubulin assembly. The figure quoted is the concentration required to reduce assembly of tubulin by 50%. Tubulin assembly is monitored by light scatter/absorption at 350 nm.

For series [1], the system named is K562 human myelogeneous leukaemia cell line. Description: Cytotoxicity/growth inhibition assay (MTT), K562. The settings on record: MTT, read-out: K562 IC50. Format: cell-based. The text has this: In addition to the cell lines described in this paper, other established human cell lines (K562, HUVEC, H460, BE, H529, and HT29) were used in the cytotoxicity/growth inhibition assay. • (1) Inhibition of tubulin assembly. The figure quoted is the concentration required to reduce assembly of tubulin by 50%. Tubulin assembly is monitored by light scatter/absorption at 350 nm.
(§2) (2) Competition for the colchicine binding site on tubulin. The figure quoted represents the % of ^3H-colchicine bound following co-incubation of test compound and ^3H-cochicine with isolated tubulin. Where ester pro-drugs were used the experiments were carried out in the presence and absence of porcine liver esterase. • (3) Cytotoxicity/growth inhibition assay. This was carried out by the MTT assay. • (4) Permeability (shape-change) assay in endothelial cells. […] This involved the diffusion of a fluorescently labelled dextran through a barrier of endothelial cells (HUVEC) grown to confluence on a porous membrane. The effect of agents to alter the shape of these cells results in an increase in the permeability of the cells to the dye. The figure represents the increase in permeability over control cultures when drug is added (30 minutes, 1 mM.). • (5) Experiments to study the anti-vascular effects of these agents were carried out as described previously by our group. […] The anti-vascular effects of the agents were monitored by either positron emission tomography (PET) or by histologogical examination following treatment of mice bearing T50:80 murine breast tumours, or H460 human lung tumours. • (6) Anti-tumour efficacy of agents was determined in xenografts of H460 human lung cancer. Animals (n=5) were trated either with 5 daily injections and tumour size measured with time following treatment. • (7) The pharmacokinetic profile of agents was determined in mice following injection with drug. Blood was taken at various times following treatment and analysed by HPLC with UV detection. […] (AND(P)H:quinone oxidoreductace, EC 1.6.99.2). DT-diaphorase is an enzyme over-expressed in a number of human tumours. […] This two-electron reducing enzyme can be used to selectively activate prodrugs within cancers which over-express the enzyme.

The nature of series [2]: Photocleavage and isomerisation of coupled trans-CA-4 ex situ, composition (HPLC). The note with it: benzene. Format: physicochemical. The text has this: The following compound retention times were observed:
The subject of another series is K562 cells. Description: In situ ultra violet irradiation of dosed K562 cells, IC50. Format: cell-based, human. The note with it: read-out: IC50 K562 (nm). The method, then: Previously, the isomerisation study had been performed ex situ, i.e. in a photochemical reactor. However, it was necessary to illustrate the potential of the process as a real therapy by repeating the isomerization in the presence of the caner cells i.e. in situ. […] Following irradiation, the cells were incubated in the normal way and the IC50 values were determined.
These consisted of i) exposing K562 cells only (i.e. cells which were not dosed with any potential drug candidate) to ultra violet light, ii) preventing K562 cells dosed with drug candidate from being exposed to ultra violet light, and iii) preventing K562 cells only (i.e. cells which were not dosed with any potential drug candidate) from being exposed to ultra violet light. […]

The next series relates to K562. Description: IC50 of aliquots after ex situ irradiation in a photochemical reactor. The note with it: for IC50: read-out: IC50 K562, ex situ irradiation in benzene, 400W Hg lamp.
The subject of another series is A2780. The series is described as follows: Cytotoxicity/growth inhibition assay (MTT), A2780. Type of series: cell-based. The note with it: read-out: A2780 IC50. The method, then: as §1
(2) Competition for the colchicine binding site on tubulin. The figure quoted represents the % of ^3H-colchicine bound following co-incubation of test compound and ^3H-cochicine with isolated tubulin. Where ester pro-drugs were used the experiments were carried out in the presence and absence of porcine liver esterase. • (3) Cytotoxicity/growth inhibition assay. This was carried out by the MTT assay. • (4) Permeability (shape-change) assay in endothelial cells. This was carried out using a method based on that of Watts et al. (Anticancer Res., 17, 71–75, (1997)). This involved the diffusion of a fluorescently labelled dextran through a barrier of endothelial cells (HUVEC) grown to confluence on a porous membrane. The effect of agents to alter the shape of these cells results in an increase in the permeability of the cells to the dye. The figure represents the increase in permeability over control cultures when drug is added (30 minutes, 1 mM.). • (5) Experiments to study the anti-vascular effects of these agents were carried out as described previously by our group. (Zhao et al, European Journal of Nuclear Medicine, 26, 231–238 (1999)). The anti-vascular effects of the agents were monitored by either positron emission tomography (PET) or by histologogical examination following treatment of mice bearing T50:80 murine breast tumours, or H460 human lung tumours. • (6) Anti-tumour efficacy of agents was determined in xenografts of H460 human lung cancer. Animals (n=5) were trated either with 5 daily injections and tumour size measured with time following treatment. • (7) The pharmacokinetic profile of agents was determined in mice following injection with drug. Blood was taken at various times following treatment and analysed by HPLC with UV detection. The HPLC conditions were isocratic using a 5 micron C18 BDS column (150×4.6) ad eluting with 75% MeOH in water with a detection wavelength of 290 nm. […] (AND(P)H:quinone oxidoreductace, EC 1.6.99.2). DT-diaphorase is an enzyme over-expressed in a number of human tumours. […] This two-electron reducing enzyme can be used to selectively activate prodrugs within cancers which over-express the enzyme.

Series [3] has as its system P388 murine leukaemia cell line. Description: Cytotoxicity/growth inhibition assay (MTT), P388. Format: cell-based. The note with it: MTT. As to the method: as §2
Where [4] appears, read: irradiation 20. mins [sic] (Table 8).
Setting [5] is: irradiation 10.0 mins (Table 8).
The mark [6] stands for this setting: irradiation 12.5 mins (Table 8).

Take `CCOc1cc(/C=C\c2ccc(OC)c(O)c2)cc(OCC)c1OCC` [Compound 31a, Z-1-(3′,4′,5′-triethoxyphenyl)-2-(3″-hydroxy-4″-methoxyphenyl)ethene]: the concentration for half-maximal inhibition (IC50) in the series on tubulin worked out at 7.5 µM; in series [1] (Homo sapiens, K562), 0.018 µM.
As for `COC(=O)CCCOc1cc([N+](=O)[O-])c(COc2cc(/C=C/c3cc(OC)c(OC)c(OC)c3)ccc2OC)cc1OC` [Compound E-8, Methyl 4-[2′-methoxy-4′-({2″-methoxy-5″-[(E)-2′″-3′″,4′″,5′″-trimethoxyphenylethenyl]phenoxy}-methyl)-5′-nitrophenoxy]butanoate], the “% coupled trans-CA-4 (E-8)” value came out at 100% in series [2] (irradiation 0 mins (Table 8)); 72% in series [2] (setting [4]); 93% in series [2] (irradiation 0.5 mins (Table 8)); 88% in series [2] (irradiation 1.0 mins (Table 8)); 80% in series [2] (irradiation 1.5 mins (Table 8)); 62% in series [2] (irradiation 3.0 mins (Table 8)). Besides, the “% coupled trans-CA-4 (E-8)” value in series [2] (irradiation 4.0 mins (Table 8)) is 61%; in series [2] (irradiation 5.0 mins (Table 8)), 53%; in series [2] (irradiation 7.5 mins (Table 8)) it was 42%; in series [2] (setting [5]) it was 34%; in series [2] (setting [6]) it was 20%. Besides, the “% cis-CA-4” value in series [2] (setting [4]) was 9%; in series [2] (irradiation 1.0 mins (Table 8)) it was 4%; in series [2] (irradiation 1.5 mins (Table 8)), 8%; in series [2] (irradiation 3.0 mins (Table 8)), 11%; in series [2] (irradiation 4.0 mins (Table 8)) it was 8%; in series [2] (irradiation 5.0 mins (Table 8)), 10%. The entries for the “% cis-CA-4” value in series [2] (irradiation 7.5 mins (Table 8)), in series [2] (setting [5]) and in series [2] (setting [6]) were 13%, 19% and 45%, respectively. Also, the “% trans-CA-4” value in series [2] (setting [4]) was determined as 19%; in series [2] (irradiation 0.5 mins (Table 8)) it was 7%; in series [2] (irradiation 1.0 mins (Table 8)), 8%; in series [2] (irradiation 1.5 mins (Table 8)) it was 12%; in series [2] (irradiation 3.0 mins (Table 8)), 27%; in series [2] (irradiation 4.0 mins (Table 8)) it was 31%. The “% trans-CA-4” value in series [2] (irradiation 5.0 mins (Table 8)) came to 37%; in series [2] (irradiation 7.5 mins (Table 8)), 45%; in series [2] (setting [5]), 47%; in series [2] (setting [6]), 35%. For the same compound, the IC50 is above 100 µM in the series with K562 cells (in situ UV 0 mins (Table 9)); 1.54 µM in the series on K562 cells (in situ UV 0.5 mins (Table 9)); 0.45 µM in the series with K562 cells (in situ UV 1 mins (Table 9)); 0.25 µM in the series with K562 cells (in situ UV 1.5 mins (Table 9)); 0.13 µM in the series with K562 cells (in situ UV 2 mins (Table 9)); 0.04 µM in the series with K562 cells (in situ UV 3 mins (Table 9)). In addition, the IC50 in the series with K562 cells (in situ UV 4 mins (Table 9)) was determined as 0.011 µM; in the series with K562 cells (in situ UV 5 mins (Table 9)), 0.009 µM; in the series with K562 cells (in situ UV 7.5 mins (Table 9)), 0.005 µM; in the series with K562 cells (in situ UV 10 mins (Table 9)) it was 0.002 µM; in the series with K562 cells (in situ UV 12.5 mins (Table 9)) it was 0.003 µM; in the series with K562 cells (in situ UV 15 mins (Table 9)) it was 0.003 µM. For the same compound, the IC50 with K562 cells (in situ UV 17.5 mins (Table 9)) is 0.002 µM; in the series with K562 cells (in situ UV 20 mins (Table 9)) it was 0.002 µM; in the series with K562 (0 mins (Table 8)) it was above 150 µM; with K562 (20. mins as printed (Table 8)) it was 0.059 µM; with K562 (0.5 mins (Table 8)) it was 14.6 µM; with K562 (1.0 mins (Table 8)), 0.45 µM. In addition, the IC50 in the series on K562 (1.5 mins (Table 8)) was 0.09 µM; in the series on K562 (3.0 mins (Table 8)) it was 0.014 µM; with K562 (4.0 mins (Table 8)), 0.012 µM; in the series with K562 (5.0 mins (Table 8)), 0.008 µM; with K562 (7.5 mins (Table 8)), 0.004 µM; in the series on K562 (10.0 mins (Table 8)), 0.006 µM. Further, the IC50 in the series with K562 (12.5 mins (Table 8)) came to 0.002 µM; with K562 (15.0 mins (Table 8)), 0.002 µM; in the series with K562 (17.5 mins (Table 8)), 0.004 µM; in the series with K562 (20.0 mins (Table 8)), 0.003 µM. Further, the “times less cytotoxic than trans-CA-4” value with K562 (K562) was 5.
On to `CC/C(=C/c1cc(OC)c(OC)c(OC)c1)c1ccc(OC)c(O)c1` [Compound 45], for which the IC50 in the series with tubulin was 1.8 µM; in series [1] (Homo sapiens, K562), 0.12 µM.
In the case of `CCOc1cc(/C=C\c2ccc(OC)c(F)c2)cc(OCC)c1OCC` [Compound 32a, Z-1-(3′,4′,5′-triethoxyphenyl)-2-(3″-fluoro-4″-methoxyphenyl)ethene], the IC50 was 18 µM in the series on tubulin and 0.044 µM in series [1] (Homo sapiens, K562).
Take `COc1ccc(/C=C\c2cc(OC)c(OC)c(OC)c2)cc1OC` [Compound 99-03H]: the IC50 is 60 µM in the series on tubulin, 0.06 µM in series [1], 0.12 µM in the series with A2780 and 0.19 µM in series [3].

Usually IC50 stands for the point on the concentration scale where inhibition reaches its midpoint.
